Measurements taken from PubChem BioAssay (NCI).
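Cultured in 96-well plates, cells were exposed to test compound for 48 hours across five concentrations. GI50 is the concentration that inhibits growth by half. TGI is the concentration that stops growth completely.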

Legend:
Experiment in all cases: NCI tumour cell line growth inhibition, 48 h
OVCAR-4 ovarian = tested on: OVCAR-4 ovarian
NCI-H23 lung = tested on: NCI-H23 lung
SK-MEL-2 melanoma = tested on: SK-MEL-2 melanoma
EKVX NSCLC = tested on: EKVX NSCLC
NCI-H460 lung = tested on: NCI-H460 lung
RXF 393 renal = tested on: RXF 393 renal
HCC-2998 colon = tested on: HCC-2998 colon
SNB-19 CNS = tested on: SNB-19 CNS
KM12 colon = tested on: KM12 colon
RPMI-8226 leukemia = tested on: RPMI-8226 leukemia

Compound | TGI (OVCAR-4 ovarian) | TGI (NCI-H23 lung) | TGI (SK-MEL-2 melanoma) | TGI (EKVX NSCLC) | TGI (NCI-H460 lung) | TGI (RXF 393 renal) | TGI (HCC-2998 colon) | TGI (SNB-19 CNS) | TGI (KM12 colon) | TGI (RPMI-8226 leukemia) | GI50 (OVCAR-4 ovarian) | GI50 (NCI-H460 lung) | GI50 (RXF 393 renal) | GI50 (HCC-2998 colon) | GI50 (SNB-19 CNS) | GI50 (KM12 colon) | GI50 (RPMI-8226 leukemia) | GI50 (NCI-H23 lung) | GI50 (SK-MEL-2 melanoma) | GI50 (EKVX NSCLC)
CCCCCCc1cc(C(=O)Nc2cccc(C(F)(F)F)c2)nc(N)n1 | > 100 µM | > 100 µM | > 100 µM | > 100 µM | > 100 µM | > 100 µM | > 100 µM | > 100 µM | > 100 µM | > 100 µM |  |  |  |  |  |  |  |  |  | 
O=C(/C(=C/c1ccc([N+](=O)[O-])cc1)c1ccccc1)c1ccccc1 | > 100 µM |  |  |  | 5.93 µM | 6.78 µM | 5.24 µM | > 100 µM | 9.52 µM | 6.49 µM | 3.57 µM | 2.34 µM | 2.78 µM | 2.38 µM | 3.9 µM | 3.06 µM | 2.36 µM |  |  | 
CCOC(=O)C(=O)Nc1c(CC)cccc1C(C)C | > 100 µM | > 100 µM | > 100 µM | > 100 µM | > 100 µM | > 100 µM | > 100 µM | > 100 µM | > 100 µM | > 100 µM |  |  |  |  |  |  |  |  |  | 
O=c1[nH]c2ccccc2nc1-c1c[nH]c2ccccc12 | > 100 µM | > 100 µM | > 100 µM | > 100 µM | > 100 µM | > 100 µM | > 100 µM | > 100 µM | > 100 µM | > 100 µM | > 100 µM | > 100 µM | 7.41 µM | > 100 µM | > 100 µM | 1.39 µM | > 100 µM | > 100 µM | > 100 µM | 18.8 µM
Cc1cc2c(C)n(Cc3ccc(Cl)cc3Cl)nc2c(C#N)c1C | > 100 µM | > 100 µM | > 100 µM | > 100 µM | > 100 µM | 57.3 µM | > 100 µM | 45.7 µM | > 100 µM | > 100 µM |  |  |  |  |  |  |  |  |  | 
CCN(C(=O)N1CCN(c2cc3c(cc2F)c(=O)c(C(=O)O)cn3C2CC2)CC1)c1nc(-c2ccc(C)cc2)cs1 |  | 24.6 µM | 7.38 µM | > 100 µM | 11.9 µM | 4.2 µM | > 100 µM | > 45.4 µM | > 100 µM |  |  | 0.356 µM | 0.38 µM | 0.694 µM | 1.03 µM | 0.41 µM |  | 0.399 µM | 2.5 µM | 1.52 µM
CCCn1c(C)nc2c1C(=O)c1ccccc1C2=O | > 100 µM | > 100 µM | > 100 µM | 70.8 µM | 57.3 µM |  | > 100 µM | > 100 µM | > 100 µM | > 100 µM | 25 µM | 20.4 µM |  | 50.2 µM | 53.3 µM | 32.2 µM | 17.2 µM | 26.7 µM | 59.4 µM | 18.9 µM
COc1ccc(N=c2ssc3c(=S)ssc23)cc1 | > 100 µM | > 100 µM | > 100 µM |  |  | 38.7 µM | > 100 µM |  | > 100 µM | 38.3 µM |  |  |  |  |  |  |  |  |  | 
CN(C)c1ccc2c(c1)Sc1cc(N(C)C)ccc1N2C(=O)c1ccccc1 | > 100 µM | > 100 µM |  | > 100 µM | > 100 µM | > 100 µM | > 100 µM | > 100 µM | > 100 µM | > 100 µM | 44.6 µM | 20.5 µM | 28.7 µM | 73.2 µM | 34.2 µM | 31.6 µM | 76.1 µM | 27.7 µM |  | 13.2 µM
Brc1cccc(C2SCc3nc4ccccc4n32)c1 (configuration not stated) | 63.3 µM | 44.7 µM |  | 55.2 µM | 99.1 µM | 26.4 µM |  |  | 42.7 µM | > 100 µM |  |  |  |  |  |  |  |  |  | 
O=C1C(=O)N(c2ccc(Cl)c(Cl)c2)C(=O)C(=O)C1c1nc2ccccc2s1 | > 100 µM | > 100 µM | > 100 µM | > 100 µM |  | > 100 µM | > 100 µM | > 100 µM |  | > 100 µM |  |  |  |  |  |  |  |  |  | 
CCOC(=O)C(C)(c1cn(C)c2ccccc12)c1cn(C)c2ccccc12 | > 100 µM | > 100 µM | > 100 µM | > 100 µM | > 100 µM | > 100 µM | > 100 µM |  | > 100 µM | > 100 µM |  |  |  |  |  |  |  |  |  | 
CN(C)c1nc(=Nc2ccc3ccccc3c2)ss1 | > 100 µM |  | > 100 µM |  | > 100 µM | > 100 µM | > 100 µM | > 100 µM | > 100 µM | 52.5 µM |  |  |  |  |  |  |  |  |  | 
CS(=O)(=O)Oc1cccc(/C=N/N=C(\N)NO)c1 | > 100 µM | > 100 µM | > 100 µM | > 100 µM | > 100 µM | > 100 µM | 59.1 µM | > 100 µM | > 100 µM |  |  |  |  |  |  |  |  |  |  | 
C[Si](C)(C)OC1(C#N)C2C3CC4C2C(=O)C2C4C3C21 (configuration not stated) | > 100 µM |  | > 100 µM |  | > 100 µM | > 100 µM | > 100 µM | > 100 µM | > 100 µM | > 100 µM |  |  |  |  |  |  |  |  |  | 
COc1ccc(OC)c(NC(=O)CCC/C(CC(=O)c2ccc(O)c(OC)c2)=N\NC(=O)C[N+](C)(C)C)c1 | > 100 µM | > 100 µM | > 100 µM | > 100 µM | > 100 µM |  | > 100 µM | > 100 µM | > 100 µM | > 100 µM |  |  |  |  |  |  |  |  |  | 
Cc1ccc(-c2cc(-c3ccc(C)cc3)nc(NCCNc3ccnc4cc(Cl)ccc34)n2)cc1 | 3.24 µM | 3.85 µM | 3.63 µM | 3.52 µM | 3.7 µM |  | 3.28 µM | 3.76 µM | 3.38 µM | 4.45 µM | 1.63 µM | 1.91 µM |  | 1.76 µM | 1.89 µM | 1.75 µM | 1.85 µM | 1.91 µM | 1.9 µM | 1.69 µM
CC(C)(C)c1ccc(OCCCCCCN2CCNCC2)cc1 | 23.9 µM | 23 µM |  | 24.2 µM | 11.4 µM | 4.12 µM | 4.62 µM | 24.4 µM | 13.8 µM | 6.46 µM | 9.46 µM | 3.21 µM | 1.91 µM | 2.38 µM | 8.06 µM | 3.89 µM | 2.5 µM | 7.59 µM |  | 10.2 µM
